Series [1] has as its system IFN-g production in human whole blood. Format: cell-based. The settings on record: for IC50: read-out: WB/IFNg (IC50).
Series [2] relates to IL-2 production in human whole blood. To be noted: for IC50: read-out: WB/IL-2 (IC50).
Series [3] concerns IL-2R on T cells in human whole blood. In kind it is cell-based.
Series [4] deals with CD40L on T cells in human whole blood. Format: cell-based.
In series [5] the target is human Kv1.3 channel (Homo sapiens, UniProt P22001). In kind it is cell-based.
The target of series [6] is T1, human Kv1.3 (CHO) (Homo sapiens, UniProt P22001).
T1 construct: expressed in transfected cells; host or cells: CHO
Format: cell-based.

Series [7] deals with T2, human Kv1.1 (HEK293) (Homo sapiens, UniProt Q09470).
T2 construct: expressed in transfected cells; host or cells: HEK293
Format: cell-based.

“Also recorded” adds a separate entry of the source. Bridge positions count the residues as written; N and C are the ends. Ends that are not written are not given here. Peptide text beside a SMILES is read from it.

T2 sequence (Q09470 whole entry): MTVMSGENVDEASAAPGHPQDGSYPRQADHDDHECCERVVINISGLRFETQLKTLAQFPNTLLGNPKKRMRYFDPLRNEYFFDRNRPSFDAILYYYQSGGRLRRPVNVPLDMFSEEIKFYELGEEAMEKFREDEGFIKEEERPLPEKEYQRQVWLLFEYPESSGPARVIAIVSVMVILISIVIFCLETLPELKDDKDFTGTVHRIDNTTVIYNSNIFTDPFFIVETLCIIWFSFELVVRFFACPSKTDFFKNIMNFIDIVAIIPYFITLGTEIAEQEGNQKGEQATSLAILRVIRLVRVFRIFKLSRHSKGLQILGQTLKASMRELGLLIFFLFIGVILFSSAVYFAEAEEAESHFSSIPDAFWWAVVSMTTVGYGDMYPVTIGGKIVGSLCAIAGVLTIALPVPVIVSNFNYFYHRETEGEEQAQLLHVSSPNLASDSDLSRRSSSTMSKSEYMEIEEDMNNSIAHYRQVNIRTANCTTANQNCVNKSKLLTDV
Sequence of human Kv1.3 channel (P22001 whole entry): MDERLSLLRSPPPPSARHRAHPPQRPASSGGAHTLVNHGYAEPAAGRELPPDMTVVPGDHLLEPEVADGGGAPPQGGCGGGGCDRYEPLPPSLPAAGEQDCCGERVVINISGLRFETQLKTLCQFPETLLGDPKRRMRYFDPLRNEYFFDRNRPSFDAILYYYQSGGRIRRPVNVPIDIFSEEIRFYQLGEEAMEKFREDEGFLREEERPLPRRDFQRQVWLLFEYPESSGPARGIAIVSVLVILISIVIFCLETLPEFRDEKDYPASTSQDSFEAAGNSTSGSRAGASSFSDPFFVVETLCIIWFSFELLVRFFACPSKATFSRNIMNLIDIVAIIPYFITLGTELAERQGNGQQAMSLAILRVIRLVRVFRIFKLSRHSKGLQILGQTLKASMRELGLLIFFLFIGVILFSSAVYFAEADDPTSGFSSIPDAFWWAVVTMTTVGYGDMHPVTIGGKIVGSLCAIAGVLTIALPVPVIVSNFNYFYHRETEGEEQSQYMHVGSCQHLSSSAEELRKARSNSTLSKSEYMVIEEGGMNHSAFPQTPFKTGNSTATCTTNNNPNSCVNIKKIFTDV
T1 sequence (P22001 whole entry): as above

Take “GVIINVKCKISRQCLKPCKDAGMRFGKCMNGKCHCYPK [compound 298]”: the IC50 was 0.923 nM in series [1] and 0.639 nM in series [2].
In the same order, the values of “GVIINVKCKISRQCLKPCKDAGMRFGKCMNGKCHC [compound 1396]” are 6.99 nM and 3.94 nM.
Turning to “GIINVKCKISAQCLKPCRDAGMRFGKCMNGKCACTPK [compound 4916]”, the IC50 was found to be 2.24 nM in series [1] and 1.5 nM in series [2].
The corresponding values for “GVIINVKCKISRQCLKPCKDAGMRFGKCMNGKCHCGGG [compound 1274]” are 3.64 nM and 2.64 nM.
For “IbTx: BKCa channel inhibitor peptide, Bachem (QFTDVDCSVSKECWSVCKDLFGVDRGKCMGKKCRCYQ; Definition of Artificial Sequence: Synthetic peptide) [reference compound]”, the “thapsigargin-induced IFN-g production (in words)” value in series [1] is recorded as “no significant activity”. Further, the “thapsigargin-induced upregulation of the IL-2R on T cells (in words)” value in series [3] is reported as “no significant activity”. The “thapsigargin-induced upregulation of CD40L on T cells (in words)” value in series [4] is listed as “no significant activity”. Besides, the “thapsigargin-induced IL-2 production (in words)” value in series [2] is listed as “no significant activity”.
With “GVIINVKCKISAQCLKPCKDAGMRFGKCMNGKCHCTPK [compound 1392]”, the results for the IC50 in series [1] and in series [2] were 0.092 nM and 0.041 nM, respectively.
The corresponding values for “GGGGSGVIINVKCKISRQCLEPCKKAGMRFGKCMNGKCHCTPK [compound 1395]” are 2.2 nM and 1.36 nM.
On to “GVIINVKCKISRQCLKPCKDAGMRFGKCMNGKCHCTPK [compound 296]”, for which the IC50 in series [1] was 1.32 nM; in series [2], 1.58 nM.
As for “Fc-L-KTX1: bacterially expressed Fc-linker-KTX1 peptibody”, the “block of human Kv1.3 current (in words)” value in series [5] is recorded as “concentration dependent block”.
Consider “Fc-L10-ShK[2-35]: human IgG1 Fc fused via 10 amino acid linker to ShK[2-35]”, for which, in series [1], the “thapsigargin-induced IFN-g production (in words)” value is “suppressed; also recorded: blocked”. For the same molecule, the “thapsigargin-induced upregulation of the IL-2R on T cells (in words)” value in series [3] is “blocked”. Further, the “thapsigargin-induced upregulation of CD40L on T cells (in words)” value in series [4] was “blocked”. Further, the “stability in whole blood” value in series [2] is “stable in whole blood at 37 °C for up to 48 hours”.
Consider `CC[C@H](C)[C@@H]1NC(=O)[C@H](CCCCN)NC(=O)[C@@H](NC(=O)[C@H](CCCCN)NC(=O)[C@@H](NC(=O)[C@H](CC(N)=O)NC(=O)[C@@H](NC(=O)[C@@H](NC(=O)[C@@H](NC(=O)CN)C(C)C)[C@@H](C)CC)[C@@H](C)CC)C(C)C)CSSC[C@@H]2NC(=O)[C@H](CCCCN)NC(=O)CNC(=O)[C@H](Cc3ccccc3)NC(=O)[C@H](CCCNC(=N)N)NC(=O)[C@H](CCSC)NC(=O)CNC(=O)[C@H](C)NC(=O)[C@H](CCCCN)NC(=O)[C@H](CCCCN)NC(=O)[C@@H]3CSSC[C@@H](C(=O)N[C@H](C(=O)N4CCC[C@H]4C(=O)N[C@@H](CCCCN)C(=O)O)[C@@H](C)O)NC(=O)[C@H](Cc4c[nH]cn4)NC(=O)[C@H](CSSC[C@H](NC(=O)[C@H](CCC(N)=O)NC(=O)[C@H](CCCNC(=N)N)NC(=O)[C@H](CO)NC1=O)C(=O)N[C@@H](CC(C)C)C(=O)N[C@@H](CCC(=O)O)C(=O)N1CCC[C@H]1C(=O)N3)NC(=O)[C@H](CCCCN)NC(=O)CNC(=O)[C@H](CC(N)=O)NC(=O)[C@H](C)NC2=O` [OSK1[Ala-29]] (H-GVIINVKCKISRQCLEPCKKAGMRFGKCANGKCHCTPK-OH; disulfide 8-28, 14-33, 18-35), for which the “inhibition of the Kv1.3 current by IonWorks (in words)” value in series [6] is on record as “potent inhibition of the Kv1.3 current”. In series [2], the “potency relative to cyclosporin A in blocking the cytokine response” value is recorded as “several orders of magnitude more potent”. Besides, the “selectivity over Kv1.1 by IonWorks (in words)” value in series [7] is “improved selectivity over Kv1.1”.
Take “GVIINVKCKISRQCLKPCKDAGMRFGKCMNGKCACTPK [compound 4990]”: the IC50 turned out to be 26.6 nM in series [1] and 65.5 nM in series [2].
For “SEQ ID No: 4989: OSK1 analog without beta strand 1 (labeled des 1-7), Table 42 (CKISRQCLKPCKDAGMRFGKCMNGKCHC-NH2; ends and bridges not checked)”, the “blockade of the whole blood cytokine response (IL-2, IFNg), in words” value (from here on “blockade”) in series [2] is given as “still retain activity in blocking inflammation”.

B1: FcLoop-L2-OsK1-L2: OsK1 inserted into the human IgG1 Fc loop with 2-Gly linkers (protein)
chain: MDKTHTCPPCPAPELLGGPSVFLFPPKPKDTLMISRTPEVTCVVVDVSHEDPEVKFNWYVDGVEVHNAKTKPREEQYNSTYRVVSVLTVLHQDWLNGKEYKCKVSNKALPAPIEKTISKAKGQPREPQVYTLPPSRDELGGGVIINVKCKISRQCLEPCKKAGMRFGKCMNGKCHCTPKGGTKNQVSLTCLVKGFYPSDIAVEWESNGQPENNYKTTPPVLDSDGSFFLYSKLTVDKSRWQQGNVFSCSVMHEALHNHYTQKSLSLSPGK
modifications: Definition of Artificial Sequence: Synthetic protein
Turning to B1, in series [2], the “IC50 values, whole blood cytokine response” value was “pM range” and the “blockade” value was “potent blockade of the whole blood cytokine response”.

B2: FcLoop-L2-ShK-L2: ShK inserted into the human IgG1 Fc loop with 2-Gly linkers (protein)
chain: MDKTHTCPPCPAPELLGGPSVFLFPPKPKDTLMISRTPEVTCVVVDVSHEDPEVKFNWYVDGVEVHNAKTKPREEQYNSTYRVVSVLTVLHQDWLNGKEYKCKVSNKALPAPIEKTISKAKGQPREPQVYTLPPSRDELGGRSCIDTIPKSRCTAFQCKHSMKYRLSFCRKTCGTCGGTKNQVSLTCLVKGFYPSDIAVEWESNGQPENNYKTTPPVLDSDGSFFLYSKLTVDKSRWQQGNVFSCSVMHEALHNHYTQKSLSLSPGK
modifications: Definition of Artificial Sequence: Synthetic protein
Turning to B2, in series [2], the “IC50 values, whole blood cytokine response” value is reported as “pM range” and the “blockade” value is listed as “potent blockade of the whole blood cytokine response”.

B3: MGGHHHHHHGGGPSVFLFPPKPKDTLMISRTPEVTCVVVDVSHEDPEVKFNWYVDGVEVHNAKTKPREEQYNSTYRVVSVLTVLHQDWLNGKEYKCKVSNKALPAPIEKTISGGGGSGGGGSGVIINVKCKISRQCLEPCKKAGMRFGKCMNGKCHCTPK (protein)
chain: MGGHHHHHHGGGPSVFLFPPKPKDTLMISRTPEVTCVVVDVSHEDPEVKFNWYVDGVEVHNAKTKPREEQYNSTYRVVSVLTVLHQDWLNGKEYKCKVSNKALPAPIEKTISGGGGSGGGGSGVIINVKCKISRQCLEPCKKAGMRFGKCMNGKCHCTPK
For the molecule B3, the IC50 was 55.2 nM in series [1] and 38.5 nM in series [2].

These data come from patent US7825093B2 (priority 2006, dated 2010).
